# From PMC6801739, “Antitumor Activity of a Novel Tyrosine Kinase Inhibitor AIU2001 Due to Abrogation of the DNA Damage Repair in Non-Small Cell Lung Cancer Cells” (International Journal of Molecular Sciences, 2019)
# Legend:
# Type in all cases: cell-based, human
# A549 cells [1] = test: MTT cell viability assay, single drugs and combinations, CI scores
# Protocol: (§1) Cell viability was assessed using the MTT colorimetric assay. Cells (1 × 10^3 cells/well) were seeded into 96-well plates and treated with the various concentrations of each compound or combination of two compounds. After five days of treatment, 10 μL MTT (0.5 mg/mL) was added, and further incubated for 3 h. After removal of the supernatant, the resultant pellet was dissolved in DMSO. The absorbance of the resultant formazan was measured at 540 nm using a plate reader (Multiskan EX; ThermoLabsystems, Waltham, MA, USA).
# (§2) CI scores were calculated using the CompuSyn software by Chou (CompuSyn Inc., Paramus, NJ) based on cell viability after treatment with single- and paired-drug concentrations. The CI equation for two drugs was used: CI=(D)A/(Dx)A+(D)B/(Dx)B where (Dx)A is the concentration of drug A alone that inhibits x%, (Dx)B is the concentration of drug B alone that inhibits x%, (D)A or (D)B is the portion of drug A or drug B in the combination (D)A + (D)B that inhibits x%.
# H1299 cells [2] = test: as above
# Protocol: as §1, §2
# BEAS2B cells = test: MTT cell viability assay; details: BEAS2B normal bronchial epithelial cells, five days
# Protocol: as §1
# CCD18-Lu cells = test: MTT cell viability assay; details: CCD18-Lu lung fibroblast cells, five days
# Protocol: as §1
# H460 cells = test: MTT cell viability assay; details: five days
# Protocol: as §1
# A549 cells [3] = test: qPCR of DNA damage repair genes and STAT5 mRNA; details: 24 h
# From the text: (§3) RNA was extracted using TRIzol® RNA isolation reagent (ThermoFisher Scientific). RNA was reverse-transcribed into cDNA using the M-MLV reverse transcriptase (Enzynomics, Daejeon, Korea) and RNase inhibitor (Promega, Madison, WI, USA). The sequence of the primers targeting human BRCA1, BRCA2, RAD51, BARD1, XRCC6, and XRCC5 are as follows: BRCA1 sense 5′-[…]-3′, BRCA1 antisense 5′-[…]-3′, BRCA2 sense 5′-[…]-3′, BRCA2 antisense 5′-[…]-3′, RAD51 sense 5′-[…]-3′, RAD51 antisense 5′-[…]-3′, BARD1 sense 5′-[…]-3′, BARD1 antisense 5′-[…]-3′, XRCC6 sense 5′-[…]-3′, XRCC6 antisense 5′-[…]-3′, XRCC5 sense 5′-[…]-3′,and XRCC5 antisense 5′-[…]-3′. β-actin was used as a housekeeping gene for normalization. The cDNA was quantified using real-time PCR with SYBR Green/fluorescein qPCR master mix (ThermoScientific, Carlsbad, CA, USA) on a Lightcycler 96 system (Roche Diagnostics, Mannheim, Germany) according to the manufacturer’s protocol.
# H1299 cells [4] = test: qPCR of DNA damage repair genes and STAT5 mRNA; details: 24 h
# From the text: as §3
smiles,measurement,setting,value
"CC(C)(C)c1cc(NC(=O)Nc2ccc(-c3cn4c(n3)sc3cc(OCCN5CCOCC5)ccc34)cc2)no1 [quizartinib, reference compound]",viability at 0.16 µM,"A549 cells [1]; Homo sapiens, 120 h, Olaparib 0, Quizartinib 0.16 μM, 5 days, panel B, read-out: Relative viability",93.1%
same,viability at 0.32 µM,"A549 cells [1]; Homo sapiens, 120 h, Olaparib 0, Quizartinib 0.32 μM, 5 days, panel B, read-out: Relative viability",91.8%
same,viability at 0.63 µM,"A549 cells [1]; Homo sapiens, 120 h, Olaparib 0, Quizartinib 0.63 μM, 5 days, panel B, read-out: Relative viability",93.9%
same,viability at 1.25 µM,"A549 cells [1]; Homo sapiens, 120 h, Olaparib 0, Quizartinib 1.25 μM, 5 days, panel B, read-out: Relative viability",92.6%
same,viability at 2.5 µM,"A549 cells [1]; Homo sapiens, 120 h, Olaparib 0, Quizartinib 2.50 μM, 5 days, panel B, read-out: Relative viability",87.5%
same,viability at 5 µM,"A549 cells [1]; Homo sapiens, 120 h, Olaparib 0, Quizartinib 5.00 μM, 5 days, panel B, read-out: Relative viability",77.8%
same,viability at 10 µM,"A549 cells [1]; Homo sapiens, 120 h, Olaparib 0, Quizartinib 10.00 μM, 5 days, panel B, read-out: Relative viability",64.6%
same,Growth inhibition,"A549 cells [1]; MTT, five days",slightly inhibited the proliferation
same,viability at 0.16 µM,"H1299 cells [2]; Homo sapiens, NCI-H1299, 120 h, Olaparib 0, Quizartinib 0.16 μM, 5 days, panel B, read-out: Relative viability",104%
same,viability at 0.32 µM,"H1299 cells [2]; Homo sapiens, NCI-H1299, 120 h, Olaparib 0, Quizartinib 0.32 μM, 5 days, panel B, read-out: Relative viability",105%
same,viability at 0.63 µM,"H1299 cells [2]; Homo sapiens, NCI-H1299, 120 h, Olaparib 0, Quizartinib 0.63 μM, 5 days, panel B, read-out: Relative viability",106%
same,viability at 1.25 µM,"H1299 cells [2]; Homo sapiens, NCI-H1299, 120 h, Olaparib 0, Quizartinib 1.25 μM, 5 days, panel B, read-out: Relative viability",92.7%
same,viability at 2.5 µM,"H1299 cells [2]; Homo sapiens, NCI-H1299, 120 h, Olaparib 0, Quizartinib 2.50 μM, 5 days, panel B, read-out: Relative viability",87.3%
same,viability at 5 µM,"H1299 cells [2]; Homo sapiens, NCI-H1299, 120 h, Olaparib 0, Quizartinib 5.00 μM, 5 days, panel B, read-out: Relative viability",65.8%
same,viability at 10 µM,"H1299 cells [2]; Homo sapiens, NCI-H1299, 120 h, Olaparib 0, Quizartinib 10.00 μM, 5 days, panel B, read-out: Relative viability",32.1%
same,Growth inhibition,"H1299 cells [2]; MTT, five days",slightly inhibited the proliferation
same,Growth inhibition,BEAS2B cells,slightly inhibited the proliferation
same,Growth inhibition,CCD18-Lu cells,slightly inhibited the proliferation
same,Growth inhibition,H460 cells,slightly inhibited the proliferation
same,Expression level of STAT5 mRNA,A549 cells [3],decreased the expression
same,"mRNA levels of HR (BRCA1, BRCA2, BARD1, RAD51) and NHEJ (XRCC5, XRCC6) genes",A549 cells [3],decreased the expression
same,Expression level of STAT5 mRNA,H1299 cells [4],decreased the expression
same,"mRNA levels of HR (BRCA1, BRCA2, BARD1, RAD51) and NHEJ (XRCC5, XRCC6) genes",H1299 cells [4],decreased the expression
